# Measurements as given in patent US5618726A, “Biodegradable azo dyes” (priority 1994, dated 1997).
# Key:
# [1] = tested on: Mn(II)-peroxidase; test: Oxidation of dyes by P. chrysosporium Mn(II)-peroxidase; type: biochemical, Phanerochaete chrysosporium; details: crude enzyme, conditions specific for Mn(II)-peroxidase
# Method: (§1) The peroxidase assay was carried out using a composition having a final volume of 1.0 ml. The reaction mixture contained 250 μl of 100 mM HEPES buffer (pH 8), 500 μl of 10 mM 2,4-dichlorophenol, 100 μl of 1 mM aminoantipyrine, 50 μl enzyme preparation and 100 μl 50 mM H2 O2. The reaction was initiated by the addition of hydrogen peroxide at 37° C. One unit of peroxidase activity was expressed as the amount of enzyme required for an increase of one absorbance-unit-per-minute at 510 nm. Assays of manganese peroxidase and of ligninase from P. chrysosporium were carried out as previously described by Paszczynski et al in "Manganese peroxidase of Phanerochaete chrysosporium: Purification," Methods Enzymol. 161:264-270, incorporated herein by reference. […] Biophys., 1986, 44:750-765. Preparation and assay of ligninase and manganese peroxidase from these P. chrysosporium cultures were carried out as previously reported by Paszczynski, et al., Methods Enzymol., 1988, 161:264-270. […] Purification," Methods Enzymol. 161:264-270. […] Cycle time was 10 seconds, with the last measure after three minutes of incubation.
# [2] = tested on: S. chromofuscus A11 extracellular peroxidase; test: Oxidation of azo dyes by S. chromofuscus A11 crude enzyme preparation; type: biochemical, Streptomyces chromofuscus A11; details: pH 8, 37° C., H2O2
# Method: Environ. Microbiol., 1988, 54:3057-3063. […] Microbiol. Biotechnol., 34:661-667. Incubation took place at 37° C. with shaking at 250 rpm. The culture supernatant was collected after 48 h incubation, and vacuum-filtered through Whatman no. 1 filter paper. The filtrate was concentrated approximately 40- to 50-fold by ultrafiltration through an Amicon ultrafiltration stirred cell (series no. 8000, Amicon Corp.) with a disc PM-10 filter (diameter, 76 mm). Protein in the concentrated filtrate was then precipitated from solution with 80% ammonium sulfate. The precipitate was collected by centrifugation (15 min, 10,000 rpm). The pellet was resuspended in 10 ml of 20 mM HEPES buffer (pH 8) and dialyzed overnight against the same buffer at 4° C. These preparations were then stored in 1-ml aliquots at -20° C. until used. Before using, the preparation was filtered through a NAP-25 Sephadex G-25 disposable column (Pharmacia) in order to separate a yellowish protein fraction from a pink low-molecular-weight fraction. The yellowish fraction was used as the source of enzyme. […] The reaction was started with the addition of 100 μl of 50 mM H2 O2 and was followed for 1 min at 37° C. Controls were run with no addition of H2 O2 or with the addition of the hemeperoxidase inhibitor KCN (final concentration 25 μM).
# [3] = tested on: ligninase; test: Oxidation of dyes by P. chrysosporium ligninase (crude preparation); type: biochemical, Phanerochaete chrysosporium; details: crude enzyme, conditions specific for ligninase
# Method: as §1, with “30 seconds” for “10 seconds,”, “15 minutes. […] The reaction conditions were the same as for acid yellow 9. No decolorization” for “three minutes”, “the synthesized dyes by ligninase was detected.” for “incubation.”
# [4] = target: T1, horseradish peroxidase type II (Armoracia rusticana, UniProt P00433); test: Oxidation of azo dyes by horseradish peroxidase preparation; type: biochemical; details: pH 8, 37° C., H2O2
# T1 sequence (P00433 31-338): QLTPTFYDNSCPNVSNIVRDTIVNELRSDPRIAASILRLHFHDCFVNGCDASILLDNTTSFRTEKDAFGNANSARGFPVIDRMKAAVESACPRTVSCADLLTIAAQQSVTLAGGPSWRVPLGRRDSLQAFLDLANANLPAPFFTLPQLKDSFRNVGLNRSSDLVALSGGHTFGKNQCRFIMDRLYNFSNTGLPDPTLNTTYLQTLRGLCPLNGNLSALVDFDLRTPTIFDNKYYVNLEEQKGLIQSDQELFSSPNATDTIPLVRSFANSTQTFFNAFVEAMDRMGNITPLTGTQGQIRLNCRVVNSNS
# Method: The reaction was started with the addition of 100 μl of 50 mM H2 O2 and was followed for 1 min at 37° C. Controls were run with no addition of H2 O2 or with the addition of the hemeperoxidase inhibitor KCN (final concentration 25 μM).
# [5] = tested on: Phanerochaete chrysosporium; test: Substrate removal / decolorization by P. chrysosporium culture; type: cell-based; details: for % Decolorization, P. chrysosporium: 14 days
# Method: Environ. Microbiol., 1981, 42:290-296), with the addition of 75 mg adenine (6-aminopurine) and 27 mg L-phenylalanine-per-liter. This addition accelerated the growth of the fungus without inhibiting ligninase activity. […] […] Cultures were incubated at 37° C. for 7 to 15 days with shaking (250 rpm). Solid agar media were also employed.
# [6] = beginning concentration 100 ppm
# [7] = beginning concentration 150 ppm
# [8] = beginning concentration 200 ppm
# [9] = beginning concentration 300 ppm
Compound,"Oxidation rate of azo dyes, P. chrysosporium Mn-peroxidase [1]","Oxidation rate of azo dyes, S. chromofuscus peroxidase [2]","Oxidation rate of azo dyes, P. chrysosporium Ligninase [3]","Oxidation rate of azo dyes, Horseradish peroxidase [4]","Concentration of substrate after ten days cultivation with P. chrysosporium [5, 6]","Concentration of substrate after ten days cultivation with P. chrysosporium [5, 7]","Concentration of substrate after ten days cultivation with P. chrysosporium [5, 8]","Concentration of substrate after ten days cultivation with P. chrysosporium [5, 9]","% Decolorization, P. chrysosporium ([5]; initial concn 150 ppm)","% Decolorization, P. chrysosporium ([5]; initial concn 300 ppm)"
O=S(=O)(O)c1ccc(N=Nc2ccc(O)cc2)cc1 [compound 6],0.02 μmoles per minute per ml,0.42 μmoles per minute per ml,0.45 μmoles per minute per ml,0.47 μmoles per minute per ml,12.909 ppm,14.003 ppm,33.309 ppm,39.326 ppm,72%,18%
Cc1cc(O)c(N=Nc2ccc(S(=O)(=O)O)cc2)cc1C [compound 7],0.11 μmoles per minute per ml,0.19 μmoles per minute per ml,1.35 μmoles per minute per ml,0.34 μmoles per minute per ml,62.893 ppm,41.044 ppm,10.200 ppm,246.044 ppm,81%,55%
Cc1ccc(O)c(N=Nc2ccc(S(=O)(=O)O)cc2)c1 [compound 8],0.32 μmoles per minute per ml,0.14 μmoles per minute per ml,0.49 μmoles per minute per ml,0.07 μmoles per minute per ml,16.079 ppm,28.401 ppm,29.704 ppm,135.680 ppm,27%,49%
CCc1ccc(O)c(N=Nc2ccc(S(=O)(=O)O)cc2)c1 [compound 9],0.07 μmoles per minute per ml,0.35 μmoles per minute per ml,1.27 μmoles per minute per ml,0.20 μmoles per minute per ml,81.911 ppm,109.822 ppm,32.044 ppm,153.733 ppm,89%,86%
O=S(=O)(O)c1ccc(N=Nc2cc(F)c(O)c(F)c2)cc1 [compound 12],0.00 μmoles per minute per ml,0.15 μmoles per minute per ml,11.61 μmoles per minute per ml,0.17 μmoles per minute per ml,2.368 ppm,44.227 ppm,6.160 ppm,198.240 ppm,86%,93%
CN(C)c1ccc(N=Nc2ccc(S(=O)(=O)O)cc2)cc1 [compound 14],0.15 μmoles per minute per ml,0.10 μmoles per minute per ml,0.32 μmoles per minute per ml,0.07 μmoles per minute per ml,4.411 ppm,11.843 ppm,15.529 ppm,36.800 ppm,93%,94%
COc1ccc(N=Nc2ccc(S(=O)(=O)O)cc2)cc1 [compound 16],0.00 μmoles per minute per ml,0.06 μmoles per minute per ml,0.25 μmoles per minute per ml,0.06 μmoles per minute per ml,67.801 ppm,92.683 ppm,179.300 ppm,219.079 ppm,61%,55%
O=S(=O)(O)c1ccc(N=Nc2c(O)ccc3ccccc23)cc1 [compound 31],0.47 μmoles per minute per ml,0.09 μmoles per minute per ml,1.18 μmoles per minute per ml,0.52 μmoles per minute per ml,,,,,,
